Key:
panel of 370 kinases = assay: Kinome profiling at 100xIC50 (BTK) concentrations; assay type: biochemical; conditions: 100×IC50 (BTK) concentration
[1] = cited from earlier work
[2] = RESONATE / RESONATE2 trials: ibrutinib effect (non-inferiority margin derivation); assay type: in vivo, human
[3] = Phase 1 DDI study: treatment-emergent adverse events; assay type: in vivo, human; conditions: N = 13
Experimental: Safety was assessed by monitoring and recording of adverse events (AEs), serious adverse events (SAEs), clinical laboratory tests, physical examinations, and vital signs. […] A TEAE was defined as an AE that started during or after the first dose or started before the first dose and increased in severity after the first dose. AEs were classified based on MedDRA Version 24.0.
Safety and tolerability were assessed, when applicable, by incidence, severity, change from baseline values, and abnormal values for all relevant parameters such as AEs, laboratory parameters, vital signs, and physical examination.

[4] = cited from earlier work; remark: listed apart in the source
CYP3A = conditions: coadministration of rifabutin with midazolam; cited from earlier work
[5] = phase 3, relapsed/refractory CLL

Row | SMILES | Off-target kinases inhibited (panel of 370 kinases) [kinases] | Arthralgia, any grade [1, 5] [%] | Atrial fibrillation, any grade [1, 5] [%] | Cough [1, 5] [%] | Fatigue grade ≥3 [1, 5] [%] | Headaches [1, 5] [%] | Hypertension, any grade [1, 5] [%] | Infections grade ≥3 [1, 5] [%] | Pooled PFS HR, fixed-effect meta-analysis [2] | AEs leading to treatment discontinuation ([1]; long-term follow-up, 132 patients) [%] | Chromaturia TEAE [3] | Overall TEAEs [3] | Renal and urinary disorders TEAE [3] | Decrease of systemic levels after multiple doses (auto-induction) ([4]; in vivo) [%] | Mean t1/2 (standard deviation) ([4]; single oral dose of 300 mg) | Tmax ([4]; single oral dose of 300 mg) [h] | Reduction in midazolam exposure (CYP3A)
1 | CC#CC(=O)N1CCC[C@H]1c1nc(-c2ccc(C(=O)Nc3ccccn3)cc2)c2c(N)nccn12 [acalabrutinib] | 15 | 15.8 | 9.0 | 28.9 | 3.4 | 34.6 | 8.6 | 30.8 | – | – | – | – | – | – | – | – | –
2 | C=CC(=O)N1CCC[C@@H](n2nc(-c3ccc(Oc4ccccc4)cc3)c3c(N)ncnc32)C1 [ibrutinib, 1-[(3R)-3-[4-amino-3-(4-phenoxyphenyl)-1H-pyrazolo[3,4-d]pyrimidin-1-yl]-1-piperidinyl]-2-propen-1-one] | 17 | – | – | – | – | – | – | – | 0.120 | 13 | – | – | – | – | – | – | –
3 | CO[C@H]1/C=C/O[C@@]2(C)Oc3c(C)c(O)c4c(c3C2=O)C2=NC3(CCN(CC(C)C)CC3)NC2=C(NC(=O)/C(C)=C\C=C\[C@H](C)[C@H](O)[C@@H](C)[C@@H](O)[C@@H](C)[C@H](OC(C)=O)[C@@H]1C)C4=O [rifabutin] | – | – | – | – | – | – | – | – | – | – | 6 (46.2) n (%) | 6 (46.2) n (%) | 6 (46.2) n (%) | 38 | 45 (standard deviation, 17) hours | 2 to 4 | ≈ 3.2 fold
